# Source: patent US20200247849A1, “PEPTIDE AGONISTS AND ANTAGONISTS OF TLR4 ACTIVATION” (PEPTICOM LTD, priority 2016, published 2020)
# Experiments:
# Type in all cases: cell-based
# [1] = test system: TLR4 with MD2 or CD14 co-receptor; experiment: Reporter gene (SEAP) PAMP assay in NIH3T3 cells expressing TLR4 with MD2 or CD14 co-receptor; conditions: summary of FIGS. 6A-6V
# Excerpt: FIGS. 6A-6V show the dose response inhibitor/activator effects of the designed peptides using a reporter gene assay. The reporter gene assay is composed of NIH3T3 cells transfected with either MD2 or CD14 along with TLR4 and the NF-κB-inducible reporter gene Secreted Alkaline Phosphatase (SEAP) to monitor TLR4 activation (Burger-[…] al. 2010, A new cell-based innate immune receptor assay for the examination of receptor activity, ligand specificity, signaling pathways and the detection of pyrogens. […] The receptors are coupled to for the detection of inhibitory activity, cells were treated with the peptide prior to exposure to LPS and the response to LPS is measured at variable peptide doses (as labeled). The detection of cell activation was performed using the peptide alone, at variable doses, as indicated in the respective graphs. The following presents in more details the experimental procedures. Experimental setup: The cell-based Assay is performed with different NIH3T3 reporter cell lines (NIH 3T3 PRR SEAP-TLR4/CD14 or -TLR4/MD2) and the control cell line NIH 3T3 SEAP. The NIH3T3 SEAP cell line is used in order to determine the background of the alkaline phosphatase expression. It is a cell line stably transfected with only the reporter gene plasmid. For each assay a vial of the master cell bank is revitalized and seeded in a standard cell culture flask (75 cm^2 T-Flask) at day one. Cells are cultured in 20 ml culture media (DMEM supplemented with 10% FCS (heat inactivated), 50 units/ ml penicillin, 0.05 mg/ ml streptomycin and 2 mmol/ L L-glutamine). The cells are cultured at 37° C. in a 5% CO2 humidified atmosphere. At Day 1: For the PAMP Assay cells are seeded in a 96-well plate at a density of 0.3.10^5 cells/well in a final volume of 100 μl culture media (DMEM, 10% FCS (heat inactivated)). To ensure equal culture conditions the 96-well cell culture plates are placed side by side and cultivated in a humidified CO2 incubator (37° C. and 5% CO2). […] After a cultivation period of 24 h the media is removed and replaced with the respective volume of fresh media (DMEM, 0.5% FCS (heat inactivated)).The lyophilized peptides are stored in a freezer at -20° C. upon arrival. For the experiments they are dissolved in DMSO (to the highest possible concentration). Before opening the peptides are allowed to equilibrate to room temperature (in order to reduce the uptake of moisture). For each experiment the stock solution is diluted in DMEM to the appropriate working concentration. […] Sonication was also used to help dissolve the peptides. Immediately after replacing the media, the diluted peptides are applied in a serial dilution to the cells and directly after that the agonist is added to the cells. After adding peptide and […] the final volume in each well of a 96 well plate amounts 100 μl/well. The culture medium containing 0.5% FCS is used as a negative reference item. The induction is performed for 18 h at 37° C. and 5% CO2. At Day 3: To determine the final SEAP value, 50 μl of the supernatant is carefully transferred in a new 96-well plate (Greiner-F-plate) and 50 μl of the substrate (pNPP; p-nitrophenyl phosphate) is added. SEAP catalyzes the hydrolysis of pNPP to the final product para-nitrophenol (yellow) which can be detected by a photometric analysis using an UV-VIS reader at 405 nm. […] The results of FIGS. 6A-6V with respect to peptide activity are summarized in Table 1 above with respect to the type of effect of the respective peptide (activation/inhibition) and with respect to the corresponding co-receptor (MD2/CD14). Data concerning SEQ ID No. 22 with respect to co-receptor CD14 is in preparation.
# [2] = test system: primary mouse macrophages (expressing TLR4, MD2 and CD14); experiment: TNF-a release from primary mouse macrophages exposed to LPS; conditions: FIG. 7
# Excerpt: (§1) The top graph presents TNF-a release from primary mouse macrophages exposed to LPS treated with either peptide SEQ ID No. 9 or a control peptide while the bottom graph presents TNF-a release from primary mouse macrophages exposed to PAM3 treated with either peptide SEQ ID No. 9 or a control peptide. […] This method had been previously described (Lerner et al. 2011, Heparanase powers a chronic inflammatory circuit that promotes colitis-associated tumorigenesis in mice. J Clin Invest. 121(5): 1709-1721).
# [3] = target: T1, TLR1/2 (Mus musculus, UniProt Q9EPQ1+Q9QUN7); experiment: TNF-a release from primary mouse macrophages exposed to PAM3; conditions: primary mouse macrophages exposed to PAM3, FIG. 7
# T1 construct: endogenous in cells; host or cells: primary mouse macrophages
# T1 sequence (Q9EPQ1 26-795): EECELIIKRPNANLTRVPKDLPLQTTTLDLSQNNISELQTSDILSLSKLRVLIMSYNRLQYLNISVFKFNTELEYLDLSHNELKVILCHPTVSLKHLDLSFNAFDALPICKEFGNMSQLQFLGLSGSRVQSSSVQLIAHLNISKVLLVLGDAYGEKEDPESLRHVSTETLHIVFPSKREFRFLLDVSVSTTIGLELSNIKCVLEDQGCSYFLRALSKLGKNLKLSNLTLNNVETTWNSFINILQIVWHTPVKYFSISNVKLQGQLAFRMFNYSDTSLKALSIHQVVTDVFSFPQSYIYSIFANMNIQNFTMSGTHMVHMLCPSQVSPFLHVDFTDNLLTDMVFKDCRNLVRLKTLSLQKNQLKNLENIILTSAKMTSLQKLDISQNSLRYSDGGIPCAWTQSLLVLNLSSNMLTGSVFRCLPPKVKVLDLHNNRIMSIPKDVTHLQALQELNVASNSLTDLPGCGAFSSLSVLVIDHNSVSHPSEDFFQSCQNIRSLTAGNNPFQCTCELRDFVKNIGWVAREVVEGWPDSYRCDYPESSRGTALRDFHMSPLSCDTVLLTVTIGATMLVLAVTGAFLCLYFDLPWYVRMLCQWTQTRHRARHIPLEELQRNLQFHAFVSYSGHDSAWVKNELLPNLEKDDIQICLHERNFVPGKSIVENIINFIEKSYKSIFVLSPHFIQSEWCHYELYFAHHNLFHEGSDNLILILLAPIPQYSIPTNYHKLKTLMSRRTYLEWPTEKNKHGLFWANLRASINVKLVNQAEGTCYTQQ
# T1 sequence (Q9QUN7 25-784): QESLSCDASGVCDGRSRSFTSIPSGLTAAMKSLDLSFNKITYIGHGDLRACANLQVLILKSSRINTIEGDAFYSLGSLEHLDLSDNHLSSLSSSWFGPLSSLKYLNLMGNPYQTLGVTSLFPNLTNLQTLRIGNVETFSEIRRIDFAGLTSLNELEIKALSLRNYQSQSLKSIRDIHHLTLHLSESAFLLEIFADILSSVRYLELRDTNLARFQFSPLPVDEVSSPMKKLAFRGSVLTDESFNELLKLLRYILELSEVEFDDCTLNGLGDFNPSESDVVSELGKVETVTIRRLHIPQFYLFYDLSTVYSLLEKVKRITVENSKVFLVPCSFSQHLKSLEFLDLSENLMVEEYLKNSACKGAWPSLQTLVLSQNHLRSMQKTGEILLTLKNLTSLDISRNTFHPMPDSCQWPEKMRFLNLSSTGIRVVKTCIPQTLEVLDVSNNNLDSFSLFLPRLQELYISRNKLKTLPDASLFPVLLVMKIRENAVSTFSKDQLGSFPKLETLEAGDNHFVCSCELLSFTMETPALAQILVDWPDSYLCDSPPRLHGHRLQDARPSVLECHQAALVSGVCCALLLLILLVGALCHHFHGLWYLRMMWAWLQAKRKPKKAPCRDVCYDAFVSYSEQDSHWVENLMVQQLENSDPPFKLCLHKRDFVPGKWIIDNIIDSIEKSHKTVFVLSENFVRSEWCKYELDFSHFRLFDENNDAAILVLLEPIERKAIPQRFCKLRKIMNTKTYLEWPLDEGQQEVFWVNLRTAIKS
# Excerpt: as §1
sequence,measurement,setting,value
ILFMGMKWL (Inhibitor) [SEQ ID No. 9],Co-Receptor/s,[1]; co-receptor (MD2/CD14) via which the effect occurs,MD2
same,Activity,[1]; type of effect (activation/inhibition) on TLR4,Inhibitor
same,effect on LPS-induced TNF-a release,[2],inhibitory effect
same,effect on PAM3 induced TNF-a release,[3],no significant effect
